# Earlier results as cited in US10137245B2 (priority 2010, dated 2018).
# Tests used:
# healthy human volunteers = settings: intrathecal morphine group; extremely low plasma levels; Bailey and colleagues
# human surgical patients = settings: propofol concentration, Shafer et al 1988
Compound,Effect on HRV (healthy human volunteers),EC50 for awakening (human surgical patients) [µg/mL],EC50 for orientation (human surgical patients) [µg/mL]
CN1CC[C@]23c4c5ccc(O)c4O[C@H]2[C@@H](O)C=C[C@H]3[C@H]1C5 [morphine],substantial reduction,–,–
"CC(C)c1cccc(C(C)C)c1O [propofol, 2,6-diisopropylphenol]",–,1.07 ± 0.13,0.95 ± 0.19
